Results from patent publication US8883763B2 (Universite Joseph Fourier, priority 2010, dated 2014).

Key:
HMEC cells = assay: Proliferation of HMEC cells (GI50); assay type: cell-based; details: Homo sapiens, 120 h, 50 μM to 1 nM for 5 days
Outline: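 Cells seeded at 1,000/well (10% confluence) and exposed 5 days (120 h) to compound from 1 nM up to 50–100 μM. Live cells counted by Hoechst 33342 staining under fluorescence microscopy; GI50 is concentration halving proliferation versus control, mean of two triplicate experiments.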

HeLa cells = assay: Indirect immunofluorescence: effect on HeLa cells (mitotic arrest, microtubule depolymerization); assay type: cell-based, human; set-up: key to Effect on Hela at 25 μM / Effect on Hela at 100 μM / Effect on Hela at 50 and 100 μM / Effect on Hela at 50 μM: —: −: no activity on the cells at 25 μM (if there is an effect at high concentrations, this is specified in the table).; *: weak activity (MA and/or slight depolymerization of the MTs and/or slight inhibition of proliferation),; **: average activity (MA and/or moderate depolymerization of the MTs and/or moderate inhibition of proliferation),; ***: strong activity (MA and/or pronounced depolymerization of the MTs and/or pronounced inhibition of proliferation),; ****: very strong activity (MA and/or very pronounced depolymerization of the MTs and/or strong inhibition of proliferation); details: 24 hours; for Effect on Hela at 25 μM: mitotic index and/or depolymerization of the MTs
Outline: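 HeLa cells exposed 24 h to compound (100 μM to 50 nM; primary series 1–10 μM), DMSO controls. PFA/glutaraldehyde-fixed cells immunostained for α-tubulin, actin (phalloidin) and DNA (Hoechst); fluorescence microscopy scored phenotypes and mitotic index, with mitotic index and/or MT depolymerization evaluated at 25 μM.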

bovine brain tubulin = assay: In vitro tubulin polymerization test (turbidimetry at 350 nm); assay type: biochemical; details: molecules at 50 μM, calculated at t=3000 s, DMSO control = 100%
Outline: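 Bovine brain tubulin was assembled at 37 °C in BRB80 (80 mM K-PIPES pH 6.8, 1 mM MgCl2, 1 mM EGTA) with 1 mM GTP. The 50 μM tests used compounds at 50 μM, run in triplicate. Turbidity at 350 nm was read at t=3000 s and expressed relative to control taken as 100%.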

PP1α (PP1CA) = biological target: T1, PP1α (PP1CA) (Oryctolagus cuniculus, UniProt P62139); assay: Protein phosphatase test (PP1 activity, DiFMUP fluorescent substrate); assay type: biochemical; details: PP1CA at 80 mU, fluorescent substrate (50 μM), molecules from 50 μM to 50 nM; read-out: PP1 Inhibition IC50
T1 construct: purchased New England Biolabs P0754
Outline: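 PP1α (30 or 80 mU) in 100 mM Tris-HCl pH 7.5, 4 mM DTT, 0.2 mM EDTA, 0.5 mM MnCl2 was preincubated 15 min with compound (50 μM to 50 nM), then given 60 μM DiFMUP for 20 min at 37 °C. Phosphatase activity was read as fluorescence at 355-460 nm, three times in duplicate.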

T1 sequence (P62139 whole entry): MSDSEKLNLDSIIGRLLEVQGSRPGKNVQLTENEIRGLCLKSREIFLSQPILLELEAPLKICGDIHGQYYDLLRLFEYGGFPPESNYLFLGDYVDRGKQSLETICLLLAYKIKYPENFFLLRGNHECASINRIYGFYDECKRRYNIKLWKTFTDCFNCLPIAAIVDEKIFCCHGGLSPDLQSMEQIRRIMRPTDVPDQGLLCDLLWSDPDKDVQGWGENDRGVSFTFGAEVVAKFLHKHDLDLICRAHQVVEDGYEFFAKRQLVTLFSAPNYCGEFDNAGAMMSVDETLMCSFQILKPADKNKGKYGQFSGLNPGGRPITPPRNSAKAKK

SMILES	melting point [°C]	IC50 (PP1α (PP1CA)) [µM]	GI50 (HMEC cells) [µM]	Effect on Hela at 25 μM (HeLa cells)	Tubulin polymerization inhibition (bovine brain tubulin)	Effect on Hela at 50 and 100 μM (HeLa cells; 50 and 100 μM)
COc1ccc(-c2nc(Cl)c3cc(OC)ccc3c2Br)cc1 [Compound 26, 4-Bromo-1-chloro-7-methoxy-3-(4-methoxyphenyl)isoquinoline]	164 to 166	> 50	> 50	—	— ((−) signifies that the molecule induces little or no tubulin assembly inhibition in vitro: 0+ or − −5% of the DMSO control.)	
COc1ccc(-c2nc(OC)c3cc(OC)ccc3c2Br)cc1 [Compound 27, 4-Bromo-1,7-Dimethoxy-3-(4-methoxyphenyl)isoquinoline]	138 to 140	> 50	25 to 50	—	+ ((+) signifies that the molecule induces tubulin assembly inhibition in vitro comprised between 6 and 25% of the DMSO control.)	
C#CCn1c(-c2ccc(OC)cc2)c([N+](=O)[O-])c2ccc(OC)cc2c1=O [Compound 28, 7-Methoxy-3-(4-methoxyphenyl)-4-nitro-2-(propargyl)isoquinolin-1(2H)-one]	162 to 164	25 to 50	> 50	—	— ((−) signifies that the molecule induces little or no tubulin assembly inhibition in vitro: 0+ or − −5% of the DMSO control.)	**
C#CCOc1nc(-c2ccc(OC)cc2)c([N+](=O)[O-])c2ccc(OC)cc12 [Compound 29, 7-Methoxy-3-(4-methoxyphenyl)-4-nitro-1-(prop-2ynyloxy)isoquinoline]	177 to 179	≥ 50	> 50	—	+ ((+) signifies that the molecule induces tubulin assembly inhibition in vitro comprised between 6 and 25% of the DMSO control.)	
COc1ccc(-c2nc(OCC#N)c3cc(OC)ccc3c2[N+](=O)[O-])cc1 [Compound 31, 2-(7-Methoxy-3-(4-methoxyphenyl)-4-nitroisoquinolin-1-yloxy)ethanenitrile]	192 to 194	> 50	> 50	—	++ ((++) signifies that the molecule induces tubulin assembly inhibition in vitro comprised between 26 and 50% of the DMSO control.)	
COc1ccc2cc(-c3ccc(C#C[Si](C)(C)C)cc3)[nH]c(=O)c2c1 [Compound 33, 7-Methoxy-3-(4-((trimethylsilyl)ethynyl)phenyl)isoquinolin-1(2H)-one]	133 to 135	> 50	25 to 50	—	— ((−) signifies that the molecule induces little or no tubulin assembly inhibition in vitro: 0+ or − −5% of the DMSO control.)	
COc1ccc2c([N+](=O)[O-])c(-c3ccc(C#C[Si](C)(C)C)cc3)[nH]c(=O)c2c1 [Compound 35, 7-Methoxy-4-nitro-3-(4-((trimethylsilyl)ethynyl)phenyl)isoquinolin-1(2H)-one]	178 to 180	10 to 24	≤ 0.1	***	— ((−) signifies that the molecule induces little or no tubulin assembly inhibition in vitro: 0+ or − −5% of the DMSO control.)	
C#Cc1c(-c2ccc(OC)cc2)nc(OC)c2cc(OC)ccc12 [Compound 38, 4-Ethynyl-1,7-dimethoxy-3-(4-methoxyphenyl)isoquinoline]	209 to 210	> 50	> 50	—	+ ((+) signifies that the molecule induces tubulin assembly inhibition in vitro comprised between 6 and 25% of the DMSO control.)	
COc1ccc(-c2[nH]c(=O)c3cc(OC)ccc3c2-n2cccc2)cc1 [Compound 39, 4-(Pyrrol-1-yl)-7-methoxy-3-(4-methoxyphenyl)isoquinoline-1(2H)-one]	238	10 to 24	0.1 to 1	—	+ ((+) signifies that the molecule induces tubulin assembly inhibition in vitro comprised between 6 and 25% of the DMSO control.)	
COc1ccc(-c2[nH]c(=O)c3cc(OC)ccc3c2N2CCCCC2)cc1 [Compound 40, 4-(Piperidin-1-yl)-7-methoxy-3-(4-methoxyphenyl)isoquinoline-1(2H)-one]	206	> 50	0.1 to 1	—	+++ ((+++) signifies that the molecule induces tubulin assembly inhibition in vitro of more than 50% with respect to the DMSO control.)	
COc1ccc2cc(-c3ccc(OCc4ccccc4)cc3)[nH]c(=O)c2c1 [Compound 44, 3-(4-(Benzyloxy)phenyl)-7-methoxyisoquinolin-1(2H)-one]	> 260	10 to 24	25 to 50	—	— ((−) signifies that the molecule induces little or no tubulin assembly inhibition in vitro: 0+ or − −5% of the DMSO control.)	
COc1ccc2cc(-c3ccc(O)cc3)[nH]c(=O)c2c1 [Compound 45, 3-(4-Hydroxyphenyl)-7-methoxyisoquinolin-1(2H)-one]	255	> 50	0.1 to 1	****	++ ((++) signifies that the molecule induces tubulin assembly inhibition in vitro comprised between 26 and 50% of the DMSO control.)	

More lines, main results first:

melting point [°C]	IC50 (PP1α (PP1CA)) [µM]	SMILES	GI50 (HMEC cells) [µM]	Effect on Hela at 25 μM (HeLa cells)	Tubulin polymerization inhibition (bovine brain tubulin)	Effect on Hela at 50 and 100 μM (HeLa cells; 50 and 100 μM)
232	≥ 50	COc1ccc(-c2[nH]c(=O)c3cc(OC)ccc3c2C=O)cc1 [Compound 25, 7-Methoxy-3-(4-methoxyphenyl)isoquinoline-1(2H)-one-4-carbaldehyde]	0.1 to 1	****	+++ ((+++) signifies that the molecule induces tubulin assembly inhibition in vitro of more than 50% with respect to the DMSO control.)	
194 to 196	≥ 50	COc1ccc(-c2c([N+](=O)[O-])c3ccc(OC)cc3c(=O)n2CC#N)cc1 [Compound 30, 2-(7-Methoxy-3-(4-methoxyphenyl)-4-nitro-1-oxoisoquinolin-2(1H)-yl)ethanenitrile]	> 50	—	+ ((+) signifies that the molecule induces tubulin assembly inhibition in vitro comprised between 6 and 25% of the DMSO control.)	
> 250	10 to 24	COc1ccc2cc(-c3ccc(Br)cc3)[nH]c(=O)c2c1 [Compound 32, 3-(4-Bromophenyl)-7-methoxyisoquinolin-1(2H)-one]	0.1 to 1	****	— ((−) signifies that the molecule induces little or no tubulin assembly inhibition in vitro: 0+ or − −5% of the DMSO control.)	
222 to 224	25 to 50	COc1ccc2c([N+](=O)[O-])c(-c3ccc(Br)cc3)[nH]c(=O)c2c1 [Compound 34, 3-(4-Bromophenyl)-7-methoxy-4-nitroisoquinolin-1(2H)-one]	≤ 0.1	***	+++ ((+++) signifies that the molecule induces tubulin assembly inhibition in vitro of more than 50% with respect to the DMSO control.)	
246 to 248	10 to 24	C#Cc1ccc(-c2[nH]c(=O)c3cc(OC)ccc3c2[N+](=O)[O-])cc1 [Compound 36, 3-(4-Ethynylphenyl)-7-methoxy-4-nitroisoquinolin-1(2H)-one]	≤ 0.1	****	+++ ((+++) signifies that the molecule induces tubulin assembly inhibition in vitro of more than 50% with respect to the DMSO control.)	
252 to 254	10 to 24	COc1ccc2c([N+](=O)[O-])c(-c3ccc(OCc4ccccc4)cc3)[nH]c(=O)c2c1 [Compound 46, 3-(4-(Benzyloxy)phenyl)-7-methoxy-4-nitroisoquinolin-1(2H)-one]	> 50	—	+ ((+) signifies that the molecule induces tubulin assembly inhibition in vitro comprised between 6 and 25% of the DMSO control.)	
